Reference: patent publication US7915267B2, “Heterocyclic amide compound and use thereof” (Takeda Pharmaceutical Company Limited, priority 2005, dated 2011)

biological target: T1, MMP-13 (Homo sapiens, UniProt P45452); test: MMP-13 inhibitory activity (fluorogenic substrate Cy3-PLGLK(Cy5Q)AR-NH2 enzyme assay); assay type: biochemical; details: compound 1 μM; 37° C., 40 min; APMA-activated MMP-13 precursor; read-out: MMP-13 inhibitory rate (%) at 1 μM
T1 construct: purchased GenzymeTechne
Method: To 10 μg of MMP-13 precursor (GenzymeTechne) was added 1 ml of assay buffer (50 mM Tris-HCl (pH 7.5), 10 mM CaCl2, 150 mM NaCl, 0.05% Brij-35), and 4-aminophenylmercuric acid (Sigma) was added to the final concentration of 1 mM. The MMP-13 precursor was activated by incubating at 37° C. for 2 hr.
In a 96 well black plate (Corning), to 6.3 ng/ml of MMP-13 solution (49 μl) diluted with assay buffer was added the test compound (1 μl) diluted with dimethyl sulfoxide (DMSO) and 620 nM Cy3-PLGLK(Cy5Q)AR-NH2 (50 μl, synthesized by Amersham Biosciences) in assay buffer was added to start the enzyme reaction. After incubation at 37° C. for 40 min, 500 mM EDTA solution (6 μl) was added to stop the reaction. For measurement, Farcyte (Amersham Biosciences) was used to measure at excitation wavelength 535 nm and measurement wavelength 595 nm.
T: value of well with addition of DMSO instead of test compound
C: value of well with addition of DMSO instead of test compound and addition of EDTA solution before addition of substrate solution
X: value of well with addition of test compound

| inhibition at 1 µM [%] | Compound |
| --- | --- |
| 97 | N#Cc1ccc2nc(C(=O)NCc3cccc(OCCSc4nc[nH]n4)c3)[nH]c(=O)c2c1 [Example 2, 6-cyano-4-oxo-N-[(3-{[2-(1H-1,2,4-triazol-3-ylthio)ethyl]oxy}phenyl)methyl]-3,4-dihydroquinazoline-2-carboxamide] |
| 98 | O=C(NCc1cccc(OCCSc2nc[nH]n2)c1)c1nc2ccc(F)cc2c(=O)[nH]1 [Example 3, 6-fluoro-4-oxo-N-[(3-{[2-(1H-1,2,4-triazol-3-ylthio)ethyl]oxy}phenyl)methyl]-3,4-dihydroquinazoline-2-carboxamide] |
| 99 | COc1ccc2nc(C(=O)NCc3cccc(OCCSc4nc[nH]n4)c3)[nH]c(=O)c2c1 [Example 4, 6-(methyloxy)-4-oxo-N-[(3-{[2-(1H-1,2,4-triazol-3-ylthio)ethyl]oxy}phenyl)methyl]-3,4-dihydroquinazoline-2-carboxamide] |
| 97 | O=C(NCc1cccc(OCCSc2nc[nH]n2)c1)c1nc2ccc(Cl)cc2c(=O)[nH]1 [Example 5, 6-chloro-4-oxo-N-[(3-{[2-(1H-1,2,4-triazol-3-ylthio)ethyl]oxy}phenyl)methyl]-3,4-dihydroquinazoline-2-carboxamide] |
| 97 | Cc1ccc2nc(C(=O)NCc3cccc(OCCSc4nc[nH]n4)c3)[nH]c(=O)c2c1 [Example 6, 6-methyl-4-oxo-N-[(3-{[2-(1H-1,2,4-triazol-3-ylthio)ethyl]oxy}phenyl)methyl]-3,4-dihydroquinazoline-2-carboxamide] |
| 97 | Nc1ccc2nc(C(=O)NCc3cccc(OCCSc4nc[nH]n4)c3)[nH]c(=O)c2c1 [Example 7, 6-amino-4-oxo-N-[(3-{[2-(1H-1,2,4-triazol-3-ylthio)ethyl]oxy}phenyl)methyl]-3,4-dihydroquinazoline-2-carboxamide] |
| 99 | O=C(NCc1cccc(OCCSc2nc[nH]n2)c1)c1nc2ccc(F)c(F)c2c(=O)[nH]1 [Example 8, 5,6-difluoro-4-oxo-N-[(3-{[2-(1H-1,2,4-triazol-3-ylthio)ethyl]oxy}phenyl)methyl]-3,4-dihydroquinazoline-2-carboxamide] |
| 98 | Cc1cccc2nc(C(=O)NCc3cccc(OCCSc4nc[nH]n4)c3)[nH]c(=O)c12 [Example 9, 5-methyl-4-oxo-N-[(3-{[2-(1H-1,2,4-triazol-3-ylthio)ethyl]oxy}phenyl)methyl]-3,4-dihydroquinazoline-2-carboxamide] |
| 98 | O=C(NCc1cccc(OCCSc2nc[nH]n2)c1)c1nc2cccc(F)c2c(=O)[nH]1 [Example 10, 5-fluoro-4-oxo-N-[(3-{[2-(1H-1,2,4-triazol-3-ylthio)ethyl]oxy}phenyl)methyl]-3,4-dihydroquinazoline-2-carboxamide] |
| 97 | O=C(NCc1cccc(OCCSc2nc[nH]n2)c1)c1nc2sccc2c(=O)[nH]1 [Example 11, 4-oxo-N-[(3-{[2-(1H-1,2,4-triazol-3-ylthio)ethyl]oxy}phenyl)methyl]-3,4-dihydrothieno[2,3-d]pyrimidine-2-carboxamide] |
| 97 | Cc1cc2c(=O)[nH]c(C(=O)NCc3cccc(OCCSc4nc[nH]n4)c3)nc2s1 [Example 13, 6-methyl-4-oxo-N-[(3-{[2-(1H-1,2,4-triazol-3-ylthio)ethyl]oxy}phenyl)methyl]-3,4-dihydrothieno[2,3-d]pyrimidine-2-carboxamide] |
| 98 | Cc1sc2nc(C(=O)NCc3cccc(OCCSc4nc[nH]n4)c3)[nH]c(=O)c2c1C [Example 14, 5,6-dimethyl-4-oxo-N-[(3-{[2-(1H-1,2,4-triazol-3-ylthio)ethyl]oxy}phenyl)methyl]-3,4-dihydrothieno[2,3-d]pyrimidine-2-carboxamide] |
| 98 | N#Cc1ccc2nc(C(=O)NCc3cccc(OCCCSc4nc[nH]n4)c3)[nH]c(=O)c2c1 [Example 15, 6-cyano-4-oxo-N-[(3-{[3-(1H-1,2,4-triazol-3-ylthio)propyl]oxy}phenyl)methyl]-3,4-dihydroquinazoline-2-carboxamide] |
| 97 | N#Cc1ccc2nc(C(=O)NCc3cccc(OCCCCSc4nc[nH]n4)c3)[nH]c(=O)c2c1 [Example 17, 6-cyano-4-oxo-N-[(3-{[4-(1H-1,2,4-triazol-3-ylthio)butyl]oxy}phenyl)methyl]-3,4-dihydroquinazoline-2-carboxamide] |
| 93 | O=C(NCc1ccnc(OCCSc2nc[nH]n2)c1)c1nc2ccccc2c(=O)[nH]1 [Example 19, 4-oxo-N-[(2-{[2-(1H-1,2,4-triazol-3-ylthio)ethyl]oxy}pyridin-4-yl)methyl]-3,4-dihydroquinazoline-2-carboxamide] |
| 89 | N#Cc1ccc2nc(C(=O)NCc3ccnc(OCCSc4nc[nH]n4)c3)[nH]c(=O)c2c1 [Example 20, 6-cyano-4-oxo-N-[(2-{[2-(1H-1,2,4-triazol-3-ylthio)ethyl]oxy}pyridin-4-yl)methyl]-3,4-dihydroquinazoline-2-carboxamide] |
| 100 | Cc1csc2nc(C(=O)NCc3ccnc(OCCSc4nc[nH]n4)c3)[nH]c(=O)c12 [Example 21, 5-methyl-4-oxo-N-[(2-{[2-(1H-1,2,4-triazol-3-ylthio)ethyl]oxy}pyridin-4-yl)methyl]-3,4-dihydrothieno[2,3-d]pyrimidine-2-carboxamide] |
| 95 | O=C(NCc1ccnc(OCCCc2nc[nH]n2)c1)c1nc2ccccc2c(=O)[nH]1 [Example 22, 4-oxo-N-[(2-{[3-(1H-1,2,4-triazol-3-yl)propyl]oxy}pyridin-4-yl)methyl]-3,4-dihydroquinazoline-2-carboxamide] |
| 96 | N#Cc1ccc2nc(C(=O)NCc3ccnc(OCCCc4nc[nH]n4)c3)[nH]c(=O)c2c1 [Example 23, 6-cyano-4-oxo-N-[(2-{[3-(1H-1,2,4-triazol-3-yl)propyl]oxy}pyridin-4-yl)methyl]-3,4-dihydroquinazoline-2-carboxamide] |
| 93 | Cc1csc2nc(C(=O)NCc3ccnc(OCCCc4nc[nH]n4)c3)[nH]c(=O)c12 [Example 24, 5-methyl-4-oxo-N-[(2-{[3-(1H-1,2,4-triazol-3-yl)propyl]oxy}pyridin-4-yl)methyl]-3,4-dihydrothieno[2,3-d]pyrimidine-2-carboxamide] |
| 97 | N#Cc1ccc2nc(C(=O)NCc3cccc(OCCOc4nc[nH]n4)c3)[nH]c(=O)c2c1 [Example 25, 6-cyano-4-oxo-N-[(3-{[2-(1H-1,2,4-triazol-3-yloxy)ethyl]oxy}phenyl)methyl]-3,4-dihydroquinazoline-2-carboxamide] |
| 96 | O=C(NCc1cccc(OCCOc2nc[nH]n2)c1)c1nc2scc(-c3ccco3)c2c(=O)[nH]1 [Example 28, 5-furan-2-yl-4-oxo-N-[(3-{[2-(1H-1,2,4-triazol-3-yloxy)ethyl]oxy}phenyl)methyl]-3,4-dihydrothieno[2,3-d]pyrimidine-2-carboxamide] |
| 98 | N#CCc1csc2nc(C(=O)NCc3cccc(OCCOc4nc[nH]n4)c3)[nH]c(=O)c12 [Example 29, 5-(cyanomethyl)-4-oxo-N-[(3-{[2-(1H-1,2,4-triazol-3-yloxy)ethyl]oxy}phenyl)methyl]-3,4-dihydrothieno[2,3-d]pyrimidine-2-carboxamide] |
| 96 | O=C(NCc1cccc(COCc2nc[nH]n2)c1)c1nc2ccccc2c(=O)[nH]1 [Example 30, 4-oxo-N-[(3-{[(1H-1,2,4-triazol-3-ylmethyl)oxy]methyl}phenyl)methyl]-3,4-dihydroquinazoline-2-carboxamide] |
| 97 | N#Cc1ccc2nc(C(=O)NCc3cccc(COCc4nc[nH]n4)c3)[nH]c(=O)c2c1 [Example 31, 6-cyano-4-oxo-N-[(3-{[(1H-1,2,4-triazol-3-ylmethyl)oxy]methyl}phenyl)methyl]-3,4-dihydroquinazoline-2-carboxamide] |
| 98 | N#Cc1ccc2nc(C(=O)NCc3cccc(NC(=O)CCc4nc[nH]n4)c3)[nH]c(=O)c2c1 [Example 32, 6-cyano-4-oxo-N-[(3-{[3-(1H-1,2,4-triazol-3-yl)propanoyl]amino}phenyl)methyl]-3,4-dihydroquinazoline-2-carboxamide] |
| 90 | N#Cc1ccc2nc(C(=O)NCc3cccc(CNC(=O)Cc4nc[nH]n4)c3)[nH]c(=O)c2c1 [Example 34, 6-cyano-4-oxo-N-[(3-{[(1H-1,2,4-triazol-3-ylacetyl)amino]methyl}phenyl)methyl]-3,4-dihydroquinazoline-2-carboxamide] |
| 97 | N#Cc1ccc2nc(C(=O)NCc3cccc(CNC(=O)c4nc[nH]n4)c3)[nH]c(=O)c2c1 [Example 36, 6-cyano-4-oxo-N-[(3-{[(1H-1,2,4-triazol-3-ylcarbonyl)amino]methyl}phenyl)methyl]-3,4-dihydroquinazoline-2-carboxamide] |
| 85 | N#Cc1ccc2nc(C(=O)NCc3cccc(NC(=O)c4nc[nH]n4)c3)[nH]c(=O)c2c1 [Example 38, 6-cyano-4-oxo-N-({3-[(1H-1,2,4-triazol-3-ylcarbonyl)amino]phenyl}methyl)-3,4-dihydroquinazoline-2-carboxamide] |
| 81 | Cc1csc2nc(C(=O)NCc3cccc(NC(=O)c4nc[nH]n4)c3)[nH]c(=O)c12 [Example 39, 5-methyl-4-oxo-N-({3-[(1H-1,2,4-triazol-3-ylcarbonyl)amino]phenyl}methyl)-3,4-dihydrothieno[2,3-d]pyrimidine-2-carboxamide] |
